For this assay, the system named is Sinapis arvensis. The assay is described as follows: Weed action preemergence. The format is in vivo. The conditions noted are these: dose of 1 kg of active substance or less per hectare, visual assessment after 3 to 4 weeks vs untreated controls. The source says: Seeds of mono- and dicotyledonous weed plants are put into sandy loam soil in cardboard pots and covered with soil. The compounds according to the invention in the form of wettable powders or emulsion concentrates are then applied to the surface of the covering soil as an aqueous suspension or emulsion with a water application rate of 600 to 800 l/ha after conversion in a dose of 1 kg of active substance or less per hectare after conversion. After the treatment, the pots are placed in a greenhouse and kept under good growth conditions for the weeds. The visual assessment of the plants or emergence damage is carried out after the emergence of the test plants after a test period of 3 to 4 weeks in comparison with untreated controls. In this case, for example, the compounds of Example Nos. 5, 33 and 19 show an at least 80% action against Stellaria media, Lolium multiflorum and Amaranthus retroflexus. The compounds of Example Nos. 2 and 8 show an at least 90% action against Amaranthus retroflexus, Stellaria media and Setaria viridis. The compounds of Example Nos. 2 and 18 show a 100% action against Amaranthus retroflexus and Sinapis arvensis.

Structures are written as SMILES.

Turning to `CS(=O)(=O)c1ccc(C(=O)C2C(=O)CCCC2=O)c(Cl)c1COc1ccccc1` [Example 2, 2-(2-chloro-4-methylsulfonyl-3-phenoxymethylbenzoyl)cyclohexane-1,3-dione], the “action against Sinapis arvensis” value stood at 100%.

The values above are taken from patent US6376429B1, “Benzoylcyclohexanediones, process for their preparation and their use as herbicides and plant growth regulators” (Hoechst Schering AgrEvo GmbH, priority 1998, dated 2002).
